Measured values: patent US11414377B2, “Modulator of metabotropic and ionotropic transmembrane receptors and use thereof” (IBD THERAPEUTICS LLC, priority 2018, dated 2022)

Tests used:
[1] = target: human recombinant μ-opioid receptor (Homo sapiens, UniProt P35372); test: μ-opioid receptor radioligand displacement ([3H]DAMGO); type: binding
TRPM8 ion channel = target: T1, TRPM8 ion channel (Homo sapiens, UniProt Q7Z2W7); test: Effect on activity of TRPM8 ion channel (Fluo-4 AM calcium); type: cell-based; conditions: TRPM8 expressing HEK293 cells; Icilin 100 nM; intracellular calcium; read-out: IC50, blocker of TRPM8 ion channel
T1 construct: expressed in transfected cells; host or cells: HEK293 cells
T1 sequence (Q7Z2W7 whole entry): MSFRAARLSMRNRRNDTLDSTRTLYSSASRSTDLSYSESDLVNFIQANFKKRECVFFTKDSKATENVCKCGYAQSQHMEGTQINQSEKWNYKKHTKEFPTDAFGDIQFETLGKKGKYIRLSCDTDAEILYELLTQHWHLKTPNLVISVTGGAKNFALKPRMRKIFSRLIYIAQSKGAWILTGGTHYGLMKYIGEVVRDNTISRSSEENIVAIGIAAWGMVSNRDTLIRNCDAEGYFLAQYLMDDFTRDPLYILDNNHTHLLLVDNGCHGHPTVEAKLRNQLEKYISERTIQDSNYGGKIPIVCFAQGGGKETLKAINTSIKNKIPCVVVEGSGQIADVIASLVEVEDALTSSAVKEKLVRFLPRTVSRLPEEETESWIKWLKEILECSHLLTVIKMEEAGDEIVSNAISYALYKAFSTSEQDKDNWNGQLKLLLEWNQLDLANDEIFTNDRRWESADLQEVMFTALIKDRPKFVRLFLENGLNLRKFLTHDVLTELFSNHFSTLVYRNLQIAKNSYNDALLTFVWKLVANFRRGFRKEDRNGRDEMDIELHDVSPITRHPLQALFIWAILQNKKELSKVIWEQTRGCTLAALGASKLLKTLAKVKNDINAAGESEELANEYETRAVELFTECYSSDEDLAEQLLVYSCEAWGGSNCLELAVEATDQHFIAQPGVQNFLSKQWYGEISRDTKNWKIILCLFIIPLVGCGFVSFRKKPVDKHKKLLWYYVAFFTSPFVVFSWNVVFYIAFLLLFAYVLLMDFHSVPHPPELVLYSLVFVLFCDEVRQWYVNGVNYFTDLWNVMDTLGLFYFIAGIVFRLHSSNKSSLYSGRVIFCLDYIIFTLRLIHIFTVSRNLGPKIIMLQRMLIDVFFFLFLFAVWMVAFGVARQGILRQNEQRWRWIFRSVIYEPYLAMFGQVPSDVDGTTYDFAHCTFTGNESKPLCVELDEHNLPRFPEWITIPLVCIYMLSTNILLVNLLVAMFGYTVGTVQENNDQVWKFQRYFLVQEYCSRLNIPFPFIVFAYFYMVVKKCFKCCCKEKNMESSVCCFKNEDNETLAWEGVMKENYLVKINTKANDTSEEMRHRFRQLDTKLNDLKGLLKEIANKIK
Method: Compound I was dissolved in DMSO to a concentration of 100 mM; then the stock solution was diluted with DMSO to prepare a test solution with the concentration of substance equal to 50 μM. TRPM8 expressing HEK293 cells were used in the experiment. At the day of the experiment, the cells were incubated with a 4 μM of a solution of fluorescent indicator Fluo-4 AM. The cells after the preincubation with Icilin (100 nM), the known agonist of TRPM8 ion channel, were incubated with the test compound. The activity of receptors was determined by the intracellular calcium concentration using fluorescence spectroscopy (Behrendt, H. J. et al. (2004), Br. J. Pharmacol., 141: 737-745. FINAL).

rats = test: Stress-induced defecation model in rats; type: in vivo; conditions: 40 minutes restraint, control 2.65 ± 0.35, intact 0.24 ± 0.05
Method: The study of the activity of Compound I in the stress-induced defecation model was carried out by a standard procedure (Taguchi R., Shikata K., Furuya Y, Hirakawa T., Ino M., Shin K., Shibata H. Selective corticotropin-releasing factor 1 receptor antagonist E2508 reduces restraint stress-induced defecation and visceral pain in rat models//Psychoneuroendocrinology. 2017. P. 110-115).
Rats were adapted to a room in which the experiment was conducted for 24 hours. The study was carried out on satisfied rats. Compound I was administered once, intragastrically. After 1 hour, the rat was placed in the cloth so that the front paws were pressed to the body. In such a form, the rat was placed into the individual cage on the gating and was left for 40 minutes. Summarily the whole of excrement released during the observation period of 40 minutes then was weighed.
For all data, descriptive statistics is applied: the arithmetic mean (M) and the standard error of the mean (m) are counted up. The normality of distribution of the values obtained in the course of the experiment was checked with the aid of the Shapiro-Wilk test. In the case of normal distribution, 1-way ANOVA (with […] post hoc test) was used to evaluate the inter-group distinctions. In the case of the distribution that is other than normal one, the […] was used for the comparison of several groups.

NK3R = target: T2, NK3R (Homo sapiens, UniProt P29371); test: Effect on activity of tachykinin receptor type 3 (intracellular calcium, fluorescence); type: cell-based; conditions: CHO-K1 cells expressing NK3R, agonist [MePhe10]-NKB 1 nM, read-out: IC50, antagonist of tachykinin receptor type 3
T2 construct: expressed in transfected cells; host or cells: CHO-K1 cells
T2 sequence (P29371 1-465): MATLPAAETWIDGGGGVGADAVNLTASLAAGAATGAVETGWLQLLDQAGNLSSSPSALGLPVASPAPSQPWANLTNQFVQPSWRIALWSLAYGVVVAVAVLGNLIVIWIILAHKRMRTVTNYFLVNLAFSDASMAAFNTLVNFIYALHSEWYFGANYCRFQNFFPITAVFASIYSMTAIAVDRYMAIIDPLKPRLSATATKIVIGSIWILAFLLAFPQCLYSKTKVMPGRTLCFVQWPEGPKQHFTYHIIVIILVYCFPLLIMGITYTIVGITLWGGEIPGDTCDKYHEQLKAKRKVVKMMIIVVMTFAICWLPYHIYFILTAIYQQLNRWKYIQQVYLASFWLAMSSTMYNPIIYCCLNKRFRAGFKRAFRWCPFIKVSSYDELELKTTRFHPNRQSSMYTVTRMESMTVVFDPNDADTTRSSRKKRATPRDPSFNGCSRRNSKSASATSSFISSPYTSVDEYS
Method: Compound I was dissolved in DMSO to a concentration of 100 mM; then the stock solution was serially diluted with DMSO. The maximal start concentration of substance is 100 μM. The effect was determined at 5 concentrations of test compounds, each concentration was investigated twice. CHO-K1 cells expressing NK3R were used in the experiment, said cells after the preincubation with an agonist [MePhe10]-NKB (1 nM) were incubated with the test compound. The activity of receptors was determined by the intracellular calcium concentration using fluorescence spectroscopy (Br J Pharmacol. 1999 October; 128(3):627-36).

[2] = Solubility remark in acute toxicity dosing; type: physicochemical; conditions: solvent 0.1% Tween-80 solution in water; 2000 mg/kg dose given in 2 administrations
Method: Compound I was administered to rats and mice intragastrically at a dose of 5000 mg/kg, intraperitoneally—at a dose of 2000 mg/kg. Control groups (female and male objects) were received a solvent (0.1% Tween-80 solution in water).

human recombinant μ-opioid receptor, sequence (P35372 whole entry): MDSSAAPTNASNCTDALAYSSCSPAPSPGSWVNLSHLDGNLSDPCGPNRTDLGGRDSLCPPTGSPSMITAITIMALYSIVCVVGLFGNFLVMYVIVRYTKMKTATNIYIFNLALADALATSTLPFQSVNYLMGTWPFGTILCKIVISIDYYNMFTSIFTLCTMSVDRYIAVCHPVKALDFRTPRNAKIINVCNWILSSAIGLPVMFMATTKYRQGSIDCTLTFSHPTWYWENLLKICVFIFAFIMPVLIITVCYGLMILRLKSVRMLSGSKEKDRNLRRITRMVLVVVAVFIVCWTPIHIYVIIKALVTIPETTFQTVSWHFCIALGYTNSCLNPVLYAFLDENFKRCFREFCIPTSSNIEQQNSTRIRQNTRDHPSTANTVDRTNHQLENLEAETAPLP

O=C(Cc1ccc(O)cc1)N[C@@H](Cc1ccccc1)C(=O)NCCc1ccccc1 [Compound I, 2-phenylethylamide N-(p-hydroxyphenylacetyl)phenylalanine]
IC50 [1]: 4.1 µM
IC50 (TRPM8 ion channel): 62 µM
Weight of excrement (rats; 0.3 mg/kg once intragastrically): 2.35 ± 0.35 g
Weight of excrement (rats; 1 mg/kg once intragastrically): 1.43 ± 0.12 g
Weight of excrement (rats; 3 mg/kg once intragastrically): 1.00 ± 0.06& g
IC50 (NK3R): 15 µM
Solubility [2]: poor
